Measured values taken from ChEMBL document CHEMBL3774317, “Design and synthesis of novel tamoxifen analogues that avoid CYP2D6 metabolism” (Eur J Med Chem, 2016).

How the values were obtained:
Assay type in all cases: functional
[1] = system: CCRF-CEM; assay: Cytotoxicity against human CCRF-CEM cells assessed as cell growth at 10^-5 M after 48 hrs by SRB assay; conditions: read-out: Activity
[2] = Cytotoxicity against human Hs 578T cells assessed as cell growth at 10^-6 M after 48 hrs by SRB assay; conditions: read-out: Activity
[3] = system: SK-MEL-5; assay: Cytotoxicity against human SK-MEL-5 cells assessed as cell growth at 10^-8 M after 48 hrs by SRB assay; conditions: SK-MEL-5, 48 h, read-out: Activity
[4] = Cytotoxicity against human OVCAR4 cells assessed as cell growth at 10^-8 M after 48 hrs by SRB assay; conditions: OVCAR-4, 48 h, read-out: Activity
[5] = Cytotoxicity against human RPMI8226 cells assessed as cell growth at 10^-8 M after 48 hrs by SRB assay; conditions: RPMI-8226, 48 h, read-out: Activity
[6] = Cytotoxicity against human COLO205 cells assessed as cell growth at 10^-4 M after 48 hrs by SRB assay; conditions: COLO 205, 48 h, read-out: Activity
[7] = Cytotoxicity against human BT549 cells assessed as cell growth at 10^-6 M after 48 hrs by SRB assay; conditions: BT-549, 48 h, read-out: Activity
[8] = Cytotoxicity against human RXF393 cells assessed as cell growth at 10^-4 M after 48 hrs by SRB assay; conditions: RXF 393, 48 h, read-out: Activity
[9] = Cytotoxicity against human LOXIMVI cells assessed as cell growth at 10^-4 M after 48 hrs by SRB assay; conditions: LOX IMVI, read-out: Activity
[10] = Cytotoxicity against human RXF393 cells assessed as cell growth at 10^-6 M after 48 hrs by SRB assay; conditions: RXF 393, 48 h, read-out: Activity
[11] = Cytotoxicity against human OVCAR5 cells assessed as cell growth at 10^-5 M after 48 hrs by SRB assay; conditions: OVCAR-5, 48 h, read-out: Activity
[12] = system: NCI-H226; assay: Cytotoxicity against human NCI-H226 cells assessed as cell growth at 10^-6 M after 48 hrs by SRB assay; conditions: NCI-H226, 48 h, read-out: Activity
[13] = system: Malme-3M; assay: Cytotoxicity against human MALME-3M cells assessed as cell growth at 10^-4 M after 48 hrs by SRB assay; conditions: read-out: Activity
[14] = Cytotoxicity against human UO31 cells assessed as cell growth at 10^-5 M after 48 hrs by SRB assay; conditions: UO-31, 48 h, read-out: Activity
[15] = Cytotoxicity against human HOP62 cells assessed as cell growth at 10^-7 M after 48 hrs by SRB assay; conditions: HOP-62, 48 h, read-out: Activity
[16] = system: EKVX; assay: Cytotoxicity against human EKVX cells assessed as cell growth at 10^-5 M after 48 hrs by SRB assay; conditions: read-out: Activity
[17] = Cytotoxicity against human MOLT4 cells assessed as cell growth at 10^-6 M after 48 hrs by SRB assay; conditions: MOLT-4, 48 h, read-out: Activity
[18] = system: NCI-H522; assay: Cytotoxicity against human NCI-H522 cells assessed as cell growth at 10^-6 M after 48 hrs by SRB assay; conditions: NCI-H522, 48 h, read-out: Activity
[19] = Cytotoxicity against human HL-60(TB) cells assessed as cell growth at 10^-7 M after 48 hrs by SRB assay; conditions: HL-60, 48 h, read-out: Activity
[20] = system: HT-29; assay: Cytotoxicity against human HT-29 cells assessed as cell growth at 10^-5 M after 48 hrs by SRB assay; conditions: HT-29, 48 h, read-out: Activity
[21] = system: MCF7; assay: Cytotoxicity against human MCF7 cells assessed as cell growth at 10^-4 M after 48 hrs by SRB assay; conditions: MCF7, 48 h, read-out: Activity
[22] = Cytotoxicity against human HCC2998 cells assessed as cell growth at 10^-7 M after 48 hrs by SRB assay; conditions: HCC 2998, 48 h, read-out: Activity
[23] = Cytotoxicity against human PC3 cells assessed as cell growth at 10^-7 M after 48 hrs by SRB assay; conditions: PC-3, 48 h, read-out: Activity
[24] = system: 786-0; assay: Cytotoxicity against human 786-0 cells assessed as cell growth at 10^-4 M after 48 hrs by SRB assay; conditions: 786-0, 48 h, read-out: Activity
[25] = Cytotoxicity against human HL-60(TB) cells assessed as cell growth at 10^-5 M after 48 hrs by SRB assay; conditions: HL-60, 48 h, read-out: Activity
[26] = system: CCRF-CEM; assay: Cytotoxicity against human CCRF-CEM cells assessed as cell growth at 10^-6 M after 48 hrs by SRB assay; conditions: read-out: Activity
[27] = Cytotoxicity against human UACC257 cells assessed as cell growth at 10^-8 M after 48 hrs by SRB assay; conditions: UACC-257, 48 h, read-out: Activity
[28] = system: EKVX; assay: Cytotoxicity against human EKVX cells assessed as cell growth at 50 uM after 48 hrs by SRB assay; conditions: read-out: Activity
[29] = Cytotoxicity against human OVCAR8 cells assessed as cell growth at 5 uM after 48 hrs by SRB assay; conditions: OVCAR-8, 48 h, read-out: Activity
[30] = system: U-251; assay: Cytotoxicity against human U251 cells assessed as cell growth at 50 nM after 48 hrs by SRB assay; conditions: U-251, 48 h, read-out: Activity
[31] = system: 786-0; assay: Cytotoxicity against human 786-0 cells assessed as cell growth at 50 nM after 48 hrs by SRB assay; conditions: 786-0, 48 h, read-out: Activity
[32] = Cytotoxicity against human UACC257 cells assessed as cell growth at 50 uM after 48 hrs by SRB assay; conditions: UACC-257, 48 h, read-out: Activity
[33] = Cytotoxicity against human UO31 cells assessed as cell growth at 5 uM after 48 hrs by SRB assay; conditions: UO-31, 48 h, read-out: Activity
[34] = Cytotoxicity against human HOP62 cells assessed as cell growth at 5 nM after 48 hrs by SRB assay; conditions: HOP-62, 48 h, read-out: Activity
[35] = system: U-251; assay: Cytotoxicity against human U251 cells assessed as cell growth at 50 uM after 48 hrs by SRB assay; conditions: U-251, 48 h, read-out: Activity
[36] = system: A498; assay: Cytotoxicity against human A498 cells assessed as cell growth at 5 uM after 48 hrs by SRB assay; conditions: A498, 48 h, read-out: Activity
[37] = Cytotoxicity against human PC3 cells assessed as cell growth at 5 nM after 48 hrs by SRB assay; conditions: PC-3, 48 h, read-out: Activity
[38] = Cytotoxicity against human DU145 cells assessed as cell growth at 50 uM after 48 hrs by SRB assay; conditions: DU-145, 48 h, read-out: Activity
[39] = Cytotoxicity against human OVCAR4 cells assessed as cell growth at 50 uM after 48 hrs by SRB assay; conditions: OVCAR-4, 48 h, read-out: Activity
[40] = system: NCI-H226; assay: Cytotoxicity against human NCI-H226 cells assessed as cell growth at 0.5 uM after 48 hrs by SRB assay; conditions: NCI-H226, 48 h, read-out: Activity
[41] = system: SK-MEL-28; assay: Cytotoxicity against human SK-MEL-28 cells assessed as cell growth at 0.5 uM after 48 hrs by SRB assay; conditions: SK-MEL-28, 48 h, read-out: Activity
[42] = Cytotoxicity against human RPMI8226 cells assessed as cell growth at 0.5 uM after 48 hrs by SRB assay; conditions: RPMI-8226, 48 h, read-out: Activity

C/C(=C(/c1ccc(O)cc1)c1ccc(OCCN2CCCC2)cc1)c1ccccc1
growth at 10 µM [1]: -1%
growth at 1 µM [2]: 95%
growth at 0.01 µM [3]: 101%
growth at 0.01 µM [4]: 90%
growth at 0.01 µM [5]: 103%
growth at 100 µM [6]: -82%
growth at 1 µM [7]: 92%
growth at 100 µM [8]: -81%
growth at 100 µM [9]: -93%
growth at 1 µM [10]: 87%
growth at 10 µM [11]: 46%
growth at 1 µM [12]: 91%
growth at 100 µM [13]: -91%
growth at 10 µM [14]: -25%
growth at 0.1 µM [15]: 95%
growth at 10 µM [16]: 6%
growth at 1 µM [17]: 92%
growth at 1 µM [18]: 92%
growth at 0.1 µM [19]: 99%
growth at 10 µM [20]: -66%
growth at 100 µM [21]: -66%
growth at 0.1 µM [22]: 92%
growth at 0.1 µM [23]: 105%
growth at 100 µM [24]: -85%
growth at 10 µM [25]: -39%
growth at 1 µM [26]: 102%
growth at 0.01 µM [27]: 96%

CCCCCCCCCC(=O)Oc1ccc(/C(=C(/C)c2ccccc2)c2ccc(OCCN3CCCC3)cc2)cc1
growth at 50 µM [28]: -97%
growth at 5 µM [29]: 95%
growth at 0.05 µM [30]: 95%
growth at 0.05 µM [31]: 94%
growth at 50 µM [32]: -91%
growth at 5 µM [33]: 70%
growth at 0.005 µM [34]: 103%
growth at 50 µM [35]: -89%
growth at 5 µM [36]: 64%
growth at 0.005 µM [37]: 100%
growth at 50 µM [38]: -99%
growth at 50 µM [39]: -87%
growth at 0.5 µM [40]: 100%
growth at 0.5 µM [41]: 19%
growth at 0.5 µM [42]: 61%
